The values that follow come from ChEMBL document CHEMBL1157444, “Sucutiniranes A and B, new cassane-type diterpenes from Bowdichia nitida” (Bioorg Med Chem Lett, 2008).

Test [1] can be described thus: Cytotoxicity against human COLO201 cells. The note with it: COLO 201. It is filed as cell-based.
For test [2], the system named is Plasmodium falciparum. As to the kind of experiment: Antiplasmodial activity against Plasmodium falciparum 3D7 at 1 ug/mL. It is filed as functional, organism-based.
In test [3] the test system is Plasmodium falciparum. Put plainly: Antiplasmodial activity against Plasmodium falciparum 3D7. It is filed as functional, organism-based.

Values after ≈ are worked out from the molar mass of the structure shown. Active and inactive are the calls of the source. The calls are words filed in the database; no cut-off is given here. A value given as a limit tells only on which side of the number the result lay.

On to `CC(=O)O[C@H]1C[C@@H]([C@@H](C)C2=CC(=O)OC2)[C@H](C=O)[C@@]2(C)CCCC(C)(C)[C@H]12`, for which, in test [1], the half-inhibitory concentration (IC50) was greater than 100 µg/mL. Further, the result with Plasmodium falciparum [2] was inactive.
In the case of `CC(=O)O[C@H]1C[C@H]2[C@@H](C)c3ccoc3C[C@@H]2[C@@]2(C)CCCC(C)(C)[C@H]12`, the concentration for half-maximal inhibition (IC50) in test [1] worked out at 86.6 µg/mL (≈ 251 µM). The outcome in the test on Plasmodium falciparum [2] was inactive.
Consider `CC(=O)O[C@H]1[C@H](OC(C)=O)[C@H]2C(C)(C)CCC[C@]2(C)[C@H]2Cc3occc3[C@H](C)[C@H]12`, for which the 50% inhibitory concentration (IC50) in test [1] was greater than 100 µg/mL; in the test on Plasmodium falciparum [3] it was 0.39 µg/mL (≈ 0.969 µM).
Turning to `CC(=O)O[C@H]1C[C@H]2[C@@H](C)C3=CC(=O)O[C@]3(O)C[C@@H]2[C@@]2(C)CCCC(C)(C)[C@H]12` [SUCUTINIRANE A], in test [1], the 50% inhibitory concentration (IC50) turned out to be 37.3 µg/mL (≈ 99.1 µM). Besides, the result with Plasmodium falciparum [2] was inactive.
As to `CC(=O)O[C@H]1C[C@H]2[C@@H](C)C3=CC(=O)O[C@@H]3C[C@@H]2[C@@]2(C)CCCC(C)(C)[C@H]12` [12-DEOXY-SUCUTINIRANE A], in test [1], the IC50 was greater than 100 µg/mL. For the same molecule, in the test on Plasmodium falciparum [2], the result was inactive.
Consider `CC(=O)O[C@H]1C[C@@H]2[C@H]([C@H](O)[C@]3(C=COC3=O)[C@@H]2C)[C@@]2(C)CCCC(C)(C)[C@H]12`, for which the IC50 in test [1] is greater than 100 µg/mL. Further, the result in the test with Plasmodium falciparum [2] was inactive.
